Assay results published in ChEMBL document CHEMBL3507680, “University of Dundee, Gates Library screen for HepG2 cell viability”.

Test: Human HepG2 cell viability assay in 384 well format
Format: toxicity, cell-based
Set-up: dose 125 nL, time 70.5 hour; cytotoxicity at 70.5 h: concentration not given beside the values
Settings: HepG2 cells, read-out: Inhibition

Point of comparison: `Cn1cc(CCC(=O)N2CCCC(n3cncn3)C2)cn1` (configuration not stated), cytotoxicity at 70.5 h -0.386%. Against it:
- CCC(CO)N(Cc1ccccn1)C(=O)c1ccc(C)c(Cl)c1 (configuration not stated) — lower, -5.65%
- C[C@@H]1CN(C(=O)NC2CC2)C[C@]12CCN(c1ccsc1)C2=O — lower, -3.3%
- CC(C)c1ccc(CNC(C)c2ccc(S(C)(=O)=O)cc2)cc1 (configuration not stated) — lower, -8.82%
- Cn1cc(C(=O)N2CC[C@@H]3[C@@H]2CCN3Cc2ccccc2)cn1 — lower, -15%
- O=C(CCn1ncc2ccccc21)N1CCCC(Cc2cccnc2)C1 (configuration not stated) — lower, -5.11%
- Cc1nc(NS(=O)(=O)c2ccc(C)c(Br)c2)no1 — lower, -12.1%
- CC(C)NC(=O)CC1COC2(CCN(Cc3ccco3)CC2)C1 (configuration not stated) — higher, 18%
- COc1cccc(-c2n[nH]cc2C(=O)NC(C)CC(=O)O)c1 (configuration not stated) — lower, -2.91%
- CC1CN(c2ncccc2C(=O)Nc2cccc3c2CCCC3)CCN1 (configuration not stated) — lower, -5.69%
- Cc1cnn(CC2CCCCN2CC(=O)NCc2ccccn2)c1 (configuration not stated) — lower, -11%
- O=c1c(NCCO)c(N2CCN(c3ccccc3)CC2)c1=O — lower, -4.94%
- CCOCC1CN(c2ccc(C)nn2)Cc2nn(CC)cc21 (configuration not stated) — lower, -7%
- c1ccc(-c2noc(CN3CCc4cncnc4C3)n2)nc1 — lower, -9.29%
- O=C(c1cccnc1O)N1CCCC2(C=Cc3ccccc3O2)CC1 (configuration not stated) — lower, -4.51%
- CCOc1cccc(CCNC(=O)Cc2ccn[nH]2)n1 — lower, -7.14%
- CCc1ccc(S(=O)(=O)N2CCCC3(CCCN3S(C)(=O)=O)C2)cc1 (configuration not stated) — higher, 22.3%
- Cc1noc(-c2cccnc2N(C)Cc2ccc([S+](C)[O-])cc2)n1 (configuration not stated) — lower, -3.37%
- CN(CC1CN(CCn2cc(C#N)cn2)CCO1)c1cccnn1 (configuration not stated) — lower, -6.68%
- CCN1Cc2ccccc2CC2(CCN(CC(=O)O)CC2)C1=O — higher, 15.3%
- CNC(=O)CS(=O)(=O)C1CCN(S(=O)(=O)c2c(F)cccc2F)CC1 — lower, -7.9%
- CCc1ccccc1OC1CN(C(=O)c2cccs2)C1 — higher, 7.24%
- COC1CCN(C(=O)Cn2ncc(N3CCCCC3)cc2=O)C1 (configuration not stated) — lower, -2.54%
- O=C(NCc1ccccc1)N1CCc2ncnc(NC3CC3)c2CC1 — lower, -3.8%
- Cc1cccnc1NCCNC(=O)C1CCN(C(=O)N(C)C)CC1 — higher, 12.2%
- CC(=O)N1CCO[C@@H]2CN(C(=O)c3ccccc3)CC[C@@H]2C1 — higher, 13.4%
- O=C(NCc1cncc2c1CCN(C1CCOCC1)C2)c1ccco1 — lower, -2.15%
- CCN1CCN(C[C@@H]2CN(Cc3cnc(C(C)C)nc3)C[C@@H]2CO)CC1 — higher, 13.2%
- O=S(=O)(CCCN1CCOC(Cn2cccn2)C1)c1ccccc1 (configuration not stated) — higher, 2.06%
- CS(=O)(=O)CCNC(=O)NCCc1cc2ccccc2o1 — lower, -4.01%
- CCOc1ccc(C(=O)Nc2c(C)nc3ccccn3c2=O)cc1 — higher, 19.8%
- Cc1nc2n(n1)CC(NCC(=O)NCC1(c3ccccc3)CC1)CC2 (configuration not stated) — lower, -3.45%
- O=C(NC1CC2(CCN(CCO)CC2)c2ccccc21)c1ccno1 (configuration not stated) — higher, 17.6%
- COc1cccc2c1ccn2CCNC(=O)CCNc1ncccn1 — lower, -18%
- Cc1nc(NCCc2ccc(Cl)cc2)cc(C(=O)N2CCCCC2)n1 — higher, 13.8%
- CC(=O)Nc1cnc(Oc2ccccc2F)nc1 — lower, -5.65%
- COc1ccc(NC(=O)c2nc3ccccc3n(C)c2=O)c(OC)c1 — lower, -0.905%
- COC(CNC(=O)C1CCCC1)c1ccc(C)s1 (configuration not stated) — lower, -1.8%
- CC(C)=Cc1c(-c2ccccc2)ncn1CCS(C)(=O)=O — higher, 7.25%
- Cn1cccc1C(O)CNS(=O)(=O)Cc1ccccc1 (configuration not stated) — higher, 12.5%
- O=C(CN1CCCC1CCCO)NCc1ccccn1 (configuration not stated) — higher, 1.57%
- CN1CCC(c2cccc(CCC(=O)NCC(N)=O)n2)CC1 — lower, -5.22%
- CC(O)(CNc1ccc(Cl)c(C#N)n1)c1ccsc1 (configuration not stated) — higher, 10.6%
- c1nc(CCNc2nc(C3CC3)nc3c2CCNCC3)c[nH]1 — lower, -10.1%
- CNC(=O)c1sccc1N(C)S(=O)(=O)c1ccc(Cl)cc1 — higher, 19.5%
- CN(C)c1cc(C(=O)N2CCCCCC2)ccn1 — lower, -8.97%
- CCCn1nnnc1CN1Cc2ccccc2CC1c1nnc(C)o1 (configuration not stated) — lower, -8.77%
- Cc1nn(C)c2cn(C(C)C(=O)NCc3cccc(F)c3)nc12 (configuration not stated) — lower, -3%
- COc1ccc(Cc2nnc3n2N=C(C(C)(C)C)CS3)cc1 — higher, 8.14%
- CC(=O)NCc1nc(CC(C)C)nn1-c1cccc(C)c1 — lower, -2.35%
- c1ccc(COc2cccc(CNC3CCc4ncnn4C3)c2)cc1 (configuration not stated) — higher, 19.6%
- CO[C@@H]1CC[C@H]2[C@H]1OCCN2C(=O)c1ccc(C)o1 — higher, 46.9%
- CN1CCN(c2ccc(NS(=O)(=O)c3ccc(Cl)s3)cc2C(=O)O)CC1 — lower, -2.11%
- CCn1ccnc1CN1CCCN(C(=O)c2sccc2C#N)CC1 — higher, 1.96%
- COC[C@@H]1CC[C@H]2[C@H](CCN2S(=O)(=O)c2cccc(F)c2)O1 — lower, -5.66%
- N#Cc1ncn(CCC(=O)Nc2ccc(Cl)cc2F)n1 — lower, -7.28%
- COc1c(C(=O)NCc2cnn(C)c2C)nnn1Cc1ccccc1 — higher, 23%
